# Results published in PMC8400200, “Selective Moonlighting Cell-Penetrating Peptides” (Pharmaceutics, 2021).
# “Also recorded” adds a separate entry of the source.
# Columns and labels:
# [1] = tested on: yeast or mammalian cells; conditions: cited from earlier work
# Description: Additionally, three other peptides were designed to test the activation strategy (see Table 1). […] For this strategy we chose the peptidase neprilysin (also known as CD10), known to be overexpressed in some types of cancer tissues. The cleavage site sequence recognized by this protease has been well characte ...
# [2] = tested on: HEK293T, HEK293T-NEP and HeLa cells; assay: Internalization assay, epifluorescence microscopy, compared or averaged over the three cell lines; format: cell-based; conditions: for internalization compared between peptides: medians of box plots (Figure 6A, 6B); for internalization compared between cell lines: medians of box plots (Figure 6A)
# Experimental: (§1) This procedure was adapted from a previously reported protocol. Cells were incubated with TatNep, TatNepNoCPP or D-TatNepNoCPP peptides at a concentration of 10, 5 and 1 μM (see Table 1). All peptides were dissolved in a 1:4 DMSO-Water solution. Cells were incubated with each peptide for 30 min, then washed with PBS three times and fixed with 4% paraformaldehyde (Merck, Naucalpan de Juárez Edo. de Mexico, Mexico) for 30 min at room temperature. Afterwards, samples were washed with PBS three times and then incubated with 1 μg/mL of DAPI for 2 min at room temperature. For the images, 1000 cells were taken (3 replicates) by using the epifluorescent microscopy (Nikon ECLIPSE Ti-U). Due to a slight precipitation of the peptides, to avoid interference with the quantification, the 10% with the highest fluorescence intensity were considered outliers and were removed for all conditions. A total of 2700 cells remained for further analysis. Internalization analysis was performed by confocal microscopy. Cells were incubated with any of the three peptides at a concentration of 5 μM for 30 min (the fluorescence was strong and the precipitation reduced), then cell membranes were stained with the CellMask^TM Green Plasma Membrane Stain (ThermoFisher, Waltham, MA, USA) following specifications of the provider. Images were acquired with a Zeiss LSM800 microscope using the ZEN 2.6 (blue edition) software. All images were analyzed with the Fiji/ImageJ Software and are available at http://bis.ifc.unam.mx/ironbios/selmoonCPP/ (accessed on 21 July 2021).
# For the mammalian cells images obtained from epifluorescence microscopy, a normality Shapiro–Wilk test was done for each individual condition (27 conditions).
# [3] = tested on: HEK293T, HEK293T-NEP and HeLa cells; assay: Internalization analysis by confocal microscopy in mammalian cells; format: cell-based; conditions: 5 μM, 30 min, CellMask Green membrane stain
# Experimental: as §1
# [4] = tested on: MATa cells; conditions: cited from earlier work
# Description: In the targeted strategy, we noticed differences in penetrating efficiencies among the three targeted CPPs. […] This is observed when MATa are exposed to these peptides separately or mixed with MATα cells. […] However, if NLS-α-CE and chimera peptides would be disrupting the membrane potential of MATa cells as part of their toxic ...
# [5] = tested on: S. cerevisiae MATa and MATα cells; assay: Internalization in yeast cells exposed separately, imaging flow cytometry; format: cell-based, Saccharomyces cerevisiae; conditions: for penetrating efficiency in MATa cells compared among the targeted CPPs: MATa exposed separately or mixed with MATα cells
# Experimental: We adapted a previous protocol reported to analyze fluorescent single yeast cells. Briefly, cells were grown overnight and diluted to a final optical density measured at 600 nm of 1.0. A total of 116 μL of this cell dilution was mixed with 4 μL of a solution of penetrating peptide at 200 mM in a 1.5 mL plastic tube. This mixture was analyzed every 5 min for 60 min in a flux cytometer coupled to a multiphotonic microscope (Amnis ImageStream Mark II). In that equipment, 10,000 pictures were taken to record green (excitation 488 nm and emission 509 nm) and red (excitation 561 nm and emission 669 nm) fluorescence and the bright field. These images were then analyzed with the IDEAS software that is part of the Amnis equipment, to identify peptide internalization (red fluorescence). Two types of experiments were conducted; in one set, we exposed MATa and MATα cells separately to peptides α-NLS-C, NLS-α-CE and chimera (see Table 1 for a description of the peptide sequences). In another set of experiments, we exposed MATa and MATα cells mixed together to different penetrating peptides labeled with TAMRA; for this last experiment, the ribosomal protein RPL9A was fused to GFP in MATa cells, to facilitate their distinction from MATα cells. Events recorded in this way were further analyzed to discard cell debris and images that included clumps of cells. Images with a total area of 20–50 μm and an aspect ratio of 0.7 allowed us to identify events that include 1 or 2 cells; furthermore, images with less than 1500 arbitrary units of fluorescence were discarded. The data were plotted using ggplot2 from the R package. Please note that the reported experimental conditions were selected among several trials on the AMNIs equipment to identify the best conditions for these experiments.
# [6] = tested on: S. cerevisiae MATa and MATα cells; assay: Internalization in yeast cells followed by confocal microscopy; format: cell-based, Saccharomyces cerevisiae; conditions: 50 μM peptide, OD600 0.4, cells in 0.5% agarose, pictures every 3 min for 1 h, two sets of experiments
# Experimental: To confirm that the fluorescence detected using the AMNIS multiphotonic microscope was the fluorescence inside cells, we carried out confocal microscopy experiments (Zeiss LSM510 META) by adapting a previous report. For that end, yeast cells for each yeast haplotype were grown overnight for 14 h in YPD (1% yeast extract (USB Corp., Cleveland, OH, USA), 2% bacto peptone (Becton, Dickinson and Company, Franklin Lakes, NJ, USA) and 2% glucose (Merck, Naucalpan de Juárez Edo. De Mexico, Mexico). Cells were then centrifuged and resuspended in YPD. An OD600 of 0.4 was used for the confocal microscopy experiments, whereas for the cytometry experiments (above) a value of 1.0 was chosen. Yeast cells were immobilized using low melting point agarose (Agarose SFR VWR Life Technologies, Radnor PA, USA) at 0.5%. The peptide concentration used for these experiments was 50 μM. Prior to performing any observations, 3 cycles of sonications (sonicator Bransonic 32) for 3 min each were performed to dissolve potential peptide aggregates. A total of 12.5 μL of yeast inoculum, 1.5 μL of TAMRA-α-NLS-C solution and 1 μL of previously heated agarose were placed on a microscope slide. […] Images were analyzed using Fiji software and the fluorescence intensity recorded for each cell was divided by the area of the corresponding cell.
# [7] = tested on: HEK293T cells; assay: Internalization assay, epifluorescence microscopy; format: cell-based; conditions: 10 μM, 30 min, fixed cells, 2700 cells (3 replicates)
# Experimental: as §1, with “Internalization analysis was performed by confocal microscopy.” left out, “Images were acquired with a Zeiss LSM800 microscope using the ZEN 2.6 (blue edition) software.” left out, “2021). […]” for “2021).”
# [8] = tested on: HEK293T-NEP cells; assay: Internalization assay, epifluorescence microscopy; format: cell-based; conditions: 10 μM, 30 min, fixed cells, 2700 cells (3 replicates)
# Experimental: HEK293T cells were transfected as previously described with the plasmid PCSC-SP-PW-Nep (Addgene, Watertown, MA, USA), which contains the human neprilysin (MME) gene. This transfection was done with the use of the reagent polyethylenimine (PEI) according to the stable transfection procedures for adherent cells. The transfected HEK293T cells were cultured with DMEM containing 10% FBS and Zeocin 400 µg/mL (ThermoFisher, Waltham, MA, USA) to select stably transfected cells, which were recovered after the third day of transfection. […]
# This procedure was adapted from a previously reported protocol. […] Due to a slight precipitation of the peptides, to avoid interference with the quantification, the 10% with the highest fluorescence intensity were considered outliers and were removed for all conditions. […] Cells were incubated with any of the three peptides at a concentration of 5 μM for 30 min (the fluorescence was strong and the precipitation reduced), then cell membranes were stained with the CellMask^TM Green Plasma Membrane Stain (ThermoFisher, Waltham, MA, USA) following specifications of the provider. […] All images were analyzed with the Fiji/ImageJ Software and are available at http://bis.ifc.unam.mx/ironbios/selmoonCPP/ (accessed on 21 July 2021). […]
# [9] = epifluorescence, 10, 5 and 1 μM, 30 min
substance,measurement,setting,value
5(6)-carboxytetramethyl rhodamine [TAMRA],internalization of the free fluorophore,[1],do not internalize
"D-(YGRKKRRQRRRFFGFLADDDDEE) [D-TatNepNoCPP, all-D isomer of TatNepNoCPP, negative control, N-terminal TAMRA]",concentration dependence of internalization,[2]; [9],does not present a concentration dependent internalization
same,internalization compared between peptides,[2]; [9],less internalized in all cell lines; also recorded: TatNepNoCPP > TatNep > D-TatNepNoCPP
same,internalization by orthogonal projection,[3],less internalization compared with the other two peptides in all three cell lines
same,pattern of fluorescence,[3],diffused layer covering the cells
FRKWRRKPKKKRKVWWRKVKRRWHWLQLKPGQPMY [NLS-α-CE],toxicity to MATa cells,[4],toxic to MATa cells
same,penetrating efficiency in MATa cells compared among the targeted CPPs,[5],penetrate less efficiently MATa cells expressing the targeted surface protein (Ste2p) than the α-NLS-C peptide
KRRWRFVWMNPKKKRKVPPWPYLLWWHWLQLKPGQPMY [Chimera],toxicity to MATa cells,[4],toxic to MATa cells
same,penetrating efficiency in MATa cells compared among the targeted CPPs,[5],penetrate less efficiently MATa cells expressing the targeted surface protein (Ste2p) than the α-NLS-C peptide
RLWHWLQLKPGQPMYWRQPKSKRKVRR [α-NLS-C],"TAMRA fluorescence inside cells, MATa vs MATα",[6],cells expressing the α-pheromone receptor STE2 (MATa cells) internalized more fluorescence than cells that did not express the receptor
same,"selectivity of internalization (fluorescence intensity inside cells), MATa vs MATα","[5]; living cells exposed separately, OD600 1.0, TAMRA-labelled peptide (4 μL of 200 mM solution in 120 μL), read every 5 min for 60 min, Amnis ImageStream, 10,000 cells per condition, repeated at least 3 times",more selectivity towards MATα cells than NLS-α-CE and chimera peptides
"YGRKKRRQRRRFFG [TatNep, peptide produced by digestion of TatNepNoCPP by neprilysin, positive control for internalization, N-terminal TAMRA]",internalization compared between cell lines,[2]; [9],internalized in HEK293T and the over-expressing HEK293T-NEP cells with the same efficiency; also recorded: HeLa cells internalized more of this peptide at 10 μM than the other cell lines
same,internalization compared between peptides,[2]; [9],TatNepNoCPP > TatNep > D-TatNepNoCPP
same,"ratio between medians of normalized fluorescence intensity, column peptide against row peptide D-TatNepNoCPP",[7],2.8
same,"ratio between medians of normalized fluorescence intensity, column peptide against row peptide TatNepNoCPP",[7],2.4
same,pattern of fluorescence,[3],punctuated fluorescence
YGRKKRRQRRRFFGFLADDDDEE [TatNepNoCPP],"internalization, times higher than TatNep","[2]; average of the ratios of medians per cell line, 10 μM",3 times
same,internalization compared between cell lines,[2]; [9],HeLa > HEK293T > HEK293T-NEP
same,internalization compared between peptides,[2]; [9],best internalization with respect to the other peptides for any cell line; also recorded: TatNepNoCPP > TatNep > D-TatNepNoCPP
same,"ratio between medians of normalized fluorescence intensity, column peptide against row peptide TatNep",[8],2.4
same,pattern of fluorescence,[3],diffused layer covering the cells
